For test [1], the target named is T1, Hst2 (Saccharomyces cerevisiae, UniProt P53686). Nature of the test: biochemical. The test is classed as biochemical. The note with it: for activity at 50 µM: read-out: % Activity at 50 μM; for activity at 500 µM: read-out: % Activity at 500 μM; for inhibition of Hst2 deacetylation by scaffold analogs (in words): SAR discussion.
The target of test [2] is T1, Hst2. As to the kind of experiment: Competition assay. The test is classed as biochemical. The note with it: for α: mixed inhibition model.
The target in test [3] is T1, Hst2. As to the kind of experiment: Reversibility assay. The note with it: Hst2 incubated with 10× IC50 of inhibitor, then 100-fold dilution. The test is classed as biochemical.
For test [4], the target named is T2, human SIRT2 (Homo sapiens, UniProt Q8IXJ6).
T2 sequence (Q8IXJ6 1-352 isoform Q8IXJ6-2): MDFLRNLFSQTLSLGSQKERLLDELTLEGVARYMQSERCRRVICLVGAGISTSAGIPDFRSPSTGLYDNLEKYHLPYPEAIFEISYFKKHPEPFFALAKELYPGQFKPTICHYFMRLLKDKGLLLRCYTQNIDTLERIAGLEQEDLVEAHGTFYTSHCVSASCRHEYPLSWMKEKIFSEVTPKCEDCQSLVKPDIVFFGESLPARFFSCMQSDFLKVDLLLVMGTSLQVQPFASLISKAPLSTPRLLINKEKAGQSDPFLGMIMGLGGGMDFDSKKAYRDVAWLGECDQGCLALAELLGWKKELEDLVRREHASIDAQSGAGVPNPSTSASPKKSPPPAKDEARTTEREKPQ
Nature of the test: Inhibition of a panel of human sirtuin homologues: SIRT2. The test is classed as biochemical.

The target of test [5] is T3, human SIRT3 (Homo sapiens, UniProt Q9NTG7).
T3 sequence (Q9NTG7 1-399): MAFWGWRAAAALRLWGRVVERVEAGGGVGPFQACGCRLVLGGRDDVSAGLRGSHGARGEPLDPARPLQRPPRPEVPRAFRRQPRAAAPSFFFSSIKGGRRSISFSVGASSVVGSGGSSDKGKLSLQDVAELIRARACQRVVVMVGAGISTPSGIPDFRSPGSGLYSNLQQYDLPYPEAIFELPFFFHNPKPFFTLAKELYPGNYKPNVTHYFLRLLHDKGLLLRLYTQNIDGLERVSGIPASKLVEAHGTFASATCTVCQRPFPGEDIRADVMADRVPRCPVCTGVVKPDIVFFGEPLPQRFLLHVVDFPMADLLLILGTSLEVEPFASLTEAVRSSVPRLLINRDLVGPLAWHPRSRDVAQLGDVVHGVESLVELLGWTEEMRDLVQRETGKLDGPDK
Nature of the test: Inhibition of a panel of human sirtuin homologues: SIRT3. The test is classed as biochemical.

Test [6] has as its target T1, Hst2. As to the kind of experiment: biochemical. The following applies: for IC50 (Table 5, scaffold 12 analogs, Hst2): Hst2 fluorigenic assay.
The target in test [7] is T4, full length human SIRT1 (FL SIRT1) (Homo sapiens, UniProt Q96EB6).
T4 sequence (Q96EB6 1-747): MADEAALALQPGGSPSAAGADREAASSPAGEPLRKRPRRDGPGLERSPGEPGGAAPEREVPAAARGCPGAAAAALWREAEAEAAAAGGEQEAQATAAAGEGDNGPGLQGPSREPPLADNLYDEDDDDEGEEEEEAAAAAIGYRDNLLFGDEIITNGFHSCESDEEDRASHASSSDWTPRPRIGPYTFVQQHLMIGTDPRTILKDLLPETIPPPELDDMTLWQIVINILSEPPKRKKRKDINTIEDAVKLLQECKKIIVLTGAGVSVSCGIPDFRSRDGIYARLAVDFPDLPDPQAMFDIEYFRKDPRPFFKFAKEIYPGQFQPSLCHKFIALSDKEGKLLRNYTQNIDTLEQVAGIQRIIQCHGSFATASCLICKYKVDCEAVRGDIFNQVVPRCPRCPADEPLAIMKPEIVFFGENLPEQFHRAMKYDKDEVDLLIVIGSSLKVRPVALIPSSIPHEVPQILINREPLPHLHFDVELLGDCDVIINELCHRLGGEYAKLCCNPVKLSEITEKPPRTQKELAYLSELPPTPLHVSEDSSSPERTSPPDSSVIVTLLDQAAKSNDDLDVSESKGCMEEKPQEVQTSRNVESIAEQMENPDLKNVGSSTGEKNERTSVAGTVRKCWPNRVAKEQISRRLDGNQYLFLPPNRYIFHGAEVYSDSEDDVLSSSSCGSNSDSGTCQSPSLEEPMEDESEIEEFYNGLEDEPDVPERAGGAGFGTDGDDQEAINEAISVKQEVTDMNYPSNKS
As to the kind of experiment: Fluorigenic.

“Also recorded” adds a separate entry of the source.

As a reminder, the IC50 is the point on the concentration scale where inhibition reaches its midpoint. Read a low IC50 as inhibition by little substance. Usually Ki stands for a dissociation constant, usually derived from enzyme kinetics or from competition with a known ligand. Read a low Ki as tighter binding.

T1 sequence (P53686 1-294): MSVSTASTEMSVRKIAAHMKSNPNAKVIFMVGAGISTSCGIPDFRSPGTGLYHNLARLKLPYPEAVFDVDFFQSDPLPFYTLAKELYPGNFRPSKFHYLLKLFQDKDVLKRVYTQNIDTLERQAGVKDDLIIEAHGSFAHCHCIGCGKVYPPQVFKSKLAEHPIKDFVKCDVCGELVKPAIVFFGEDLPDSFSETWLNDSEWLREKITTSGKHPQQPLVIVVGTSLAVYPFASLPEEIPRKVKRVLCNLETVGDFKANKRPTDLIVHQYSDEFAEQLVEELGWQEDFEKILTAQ

With `CCc1ccc(OCCCC(=O)Oc2ccc3c(c2)oc(=O)c2ccccc23)cc1` [Compound 11, 4-(4-Ethyl-phenoxy)-butyric acid 6-oxo-6H-benzo[c]chromen-3-yl ester], in test [1], the activity at 50 µM was < 1% and the activity at 500 µM was < 1%. Besides, the “Inhibition Mechanism” value in test [2] (substrate NAD+) is “fully non-competitive inhibition model; also recorded: NC (full)”. Moreover, in test [2] (substrate acetyl-lysine), the “Inhibition Mechanism” value is “partial non-competitive inhibition model; also recorded: NC (partial)”. Also, the “slope of progress curve, % of enzyme plus DMSO control” value in test [3] came out at 82%. Besides, the “inhibition of human SIRT2 (in words)” value in test [4] is “potent inhibitor of SIRT2”. The “inhibition of human SIRT3 (in words)” value in test [5] was “but not SIRT3”.

For `O=C(O)CCN1Cc2ccccc2C1=O` [Compound 12, 3-(1-Oxo-1,3-dihydro-isoindol-2-yl)-propionic acid], the “Inhibition Mechanism” value in test [2] (substrate NAD+) and in test [2] (substrate acetyl-lysine) was “fully non-competitive inhibition model; also recorded: NC (full)” throughout. In test [3], the “slope of progress curve, % of enzyme plus DMSO control” value was 96%. For the same molecule, the “inhibition of human SIRT2 (in words)” value in test [4] is listed as “only weak inhibitory activity”. Also, the “inhibition of human SIRT3 (in words)” value in test [5] is “only weak inhibitory activity”.

For the molecule `Oc1c(Cl)cc(Cl)c(Cl)c1Cc1c(O)c(Cl)cc(Cl)c1Cl` [Compound 13, hexachlorophene], the figures for the IC50 in test [6] and in test [7] were 12.5 ± 0.6 µM and 34 ± 10 µM, respectively. Further, the Ki in test [2] (with respect to NAD+ (varied 5-80 μM), acetyl-lysine substrate 100 μM) was determined as 3.9 ± 0.7 µM; in test [2] (with respect to acetyl-lysine substrate (varied 3-50 μM), NAD+ 160 μM) it was 2.5 ± 1 µM. The “Inhibition Mechanism” value is listed as “fully non-competitive inhibition model; also recorded: NC (full)” in test [2] (substrate NAD+) and “fully mixed inhibition model; also recorded: Mixed (full)” in test [2] (substrate acetyl-lysine). Moreover, the α in test [2] (substrate acetyl-lysine) was found to be 13.4.

On to `COCC#CC1c2cc(O)c(OC)cc2CCN1C` (centres unmarked) [Compound 14a, 6-Methoxy-1-(3-methoxy-prop-1-ynyl)-2-methyl-1,2,3,4-tetrahydro-isoquinolin-7-ol], for which, in test [2] (substrate NAD+), the “Inhibition Mechanism” value is given as “fully mixed inhibition model; also recorded: Mixed (full)” and the α stood at 2.6. Further, the “Inhibition Mechanism” value in test [2] (substrate acetyl-lysine) is given as “fully non-competitive inhibition model; also recorded: NC (full)”. In test [4], the “inhibition of human SIRT2 (in words)” value is given as “only weak inhibitory activity”. In test [5], the “inhibition of human SIRT3 (in words)” value is given as “only weak inhibitory activity”.

As for `COCC#CC1c2cc(O)c(OC)cc2CCN1Cc1ccc(OC)cc1` (centres unmarked) [Compound 14b], in test [1], the activity at 50 µM stood at 92% and the activity at 500 µM is 2%.

`C[S+]([O-])CCC(C(=O)O)N1C(=O)c2ccccc2C1=O` (centres unmarked) [Compound 00032]: the “IC50 (Table 5, scaffold 12 analogs, Hst2)” value in test [6] was “No inhibition”.

`CC(C)C(=O)CCN1C(=O)c2ccccc2C1=O` [Compound 04265]: the “IC50 (Table 5, scaffold 12 analogs, Hst2)” value in test [6] is listed as “No inhibition”.

In the case of `O=C(O)CCN1C(=O)c2cc(Cl)c(Cl)cc2C1=O` [Compound 39008], the “IC50 (Table 5, scaffold 12 analogs, Hst2)” value in test [6] is listed as “No inhibition”.

As for `Nc1ccc2c(c1)C(=O)N(CCC(=O)O)C2` [Compound 42071], in test [6], the “IC50 (Table 5, scaffold 12 analogs, Hst2)” value is on record as “No inhibition”.

Regarding `O=C(O)CCCN1C(=O)c2ccccc2C1=O` [Compound 47032], the “IC50 (Table 5, scaffold 12 analogs, Hst2)” value in test [6] was “No inhibition”.

In the case of `O=C(O)CCN1C(=O)c2ccc(-c3nc4ccccc4c(=O)o3)cc2C1=O` [Compound 47054], the “IC50 (Table 5, scaffold 12 analogs, Hst2)” value in test [6] is given as “No inhibition”.

As for `O=C1c2ccccc2C(=O)N1CCBr` [Compound 91032], the “IC50 (Table 5, scaffold 12 analogs, Hst2)” value in test [6] was “No inhibition”.

For the molecule `Cc1cc(Cc2cc(C)c(O)c(C)c2)cc(C)c1O` [Compound 97252], in test [1], the “inhibition of Hst2 deacetylation by scaffold analogs (in words)” value (from here on “inhibition … by scaffold analogs (in words)”) is “most inhibitory activity”.

For `Cc1cccc(OCC(=O)Oc2ccc3c(C)cc(=O)oc3c2)c1` [Compound 5140108], in test [1], the “inhibition … by scaffold analogs (in words)” value is “showed some deacetylase inhibition”.

Regarding `CCc1ccc(OCCCC(=O)Oc2ccc3c(C)cc(=O)oc3c2)cc1` [Compound 6802623], in test [1], the “inhibition … by scaffold analogs (in words)” value is “significantly reduced potency”.

As to `COc1ccc(OCCCC(=O)Oc2ccc3c(c2)CCC3)cc1` [Compound 6978945], the “inhibition … by scaffold analogs (in words)” value in test [1] is “significantly reduced potency”.

On to `Cc1ccc(OCCCC(=O)Oc2ccc3c(c2)CCC3)c(C)c1` [Compound 7985301], for which the “inhibition … by scaffold analogs (in words)” value in test [1] was “significantly reduced potency”.

The values are drawn from PMC2929362 (Bioorganic & medicinal chemistry, 2009).
